In ChEMBL document CHEMBL1140609, “Carbonic anhydrase inhibitors. Inhibition of transmembrane isozymes XII (cancer-associated) and XIV with anions” (Bioorg Med Chem Lett, 2007):

What was measured:
Carbonic anhydrase 14 = Carbonic anhydrase 14 (Homo sapiens, UniProt Q9ULX7); experiment: Inhibition of human recombinant full length CA14
Carbonic anhydrase 12 = Carbonic anhydrase 12 (Homo sapiens, UniProt O43570); experiment: Inhibition of human recombinant catalytic domain CA12
Carbonic anhydrase 9 = Carbonic anhydrase 9 (Homo sapiens, UniProt Q16790); experiment: Inhibition of human recombinant catalytic domain CA9

Sequence of Carbonic anhydrase 12 (O43570 whole entry, the tested form may be a part): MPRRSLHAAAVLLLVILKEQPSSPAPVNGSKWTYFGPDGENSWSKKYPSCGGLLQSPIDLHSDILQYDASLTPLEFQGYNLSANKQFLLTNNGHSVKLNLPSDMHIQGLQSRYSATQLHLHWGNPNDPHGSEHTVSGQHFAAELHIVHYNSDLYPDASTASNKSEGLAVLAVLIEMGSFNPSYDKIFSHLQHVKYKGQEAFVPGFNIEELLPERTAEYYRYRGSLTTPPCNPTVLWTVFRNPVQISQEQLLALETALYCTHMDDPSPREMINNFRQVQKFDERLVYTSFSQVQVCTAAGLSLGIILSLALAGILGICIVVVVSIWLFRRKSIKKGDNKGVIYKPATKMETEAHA
Sequence of Carbonic anhydrase 14 (Q9ULX7 whole entry, the tested form may be a part): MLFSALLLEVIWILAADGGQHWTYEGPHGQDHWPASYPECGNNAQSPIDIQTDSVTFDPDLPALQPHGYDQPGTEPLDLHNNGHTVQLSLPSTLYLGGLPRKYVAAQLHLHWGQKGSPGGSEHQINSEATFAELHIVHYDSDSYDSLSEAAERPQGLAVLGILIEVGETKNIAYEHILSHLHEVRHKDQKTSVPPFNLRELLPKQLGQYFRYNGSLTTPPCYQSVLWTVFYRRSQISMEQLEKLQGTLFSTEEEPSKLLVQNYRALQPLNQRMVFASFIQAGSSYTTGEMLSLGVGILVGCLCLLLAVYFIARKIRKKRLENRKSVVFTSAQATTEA

Ki (Carbonic anhydrase 14)	Ki (Carbonic anhydrase 12)	Ki (Carbonic anhydrase 9)	SMILES
92 µM	800 µM		OB(O)c1ccccc1 [PHENYLBORONIC ACID]
750 µM	830 µM		NS(N)(=O)=O [SULFAMIDE]
1090 µM	700 µM	92 µM	NS(=O)(=O)O [SULFAMATE]
